Like-named read-outs stand apart in the source and are kept apart here.
Experiments:
[1] = target: T1, recombinant human Meningioma Expressed Antigen 5 (MGEA5), also referred to as O-GlcNAcase (OGA) (Homo sapiens, UniProt O60502); assay: OGA biochemical assay: inhibition of FM-GlcNAc hydrolysis, fluorescence; protocol A (10 nM OGA, 1 h) or protocol B (2 nM OGA, 6 h); conditions: for IC50: read-out: Enzymatic hOGA, pIC50 (converted)
T1 construct: Full length OGA enzyme was purchased at OriGene (cat # TP322411); purchased OriGene TP322411
T1 sequence (O60502 1-916): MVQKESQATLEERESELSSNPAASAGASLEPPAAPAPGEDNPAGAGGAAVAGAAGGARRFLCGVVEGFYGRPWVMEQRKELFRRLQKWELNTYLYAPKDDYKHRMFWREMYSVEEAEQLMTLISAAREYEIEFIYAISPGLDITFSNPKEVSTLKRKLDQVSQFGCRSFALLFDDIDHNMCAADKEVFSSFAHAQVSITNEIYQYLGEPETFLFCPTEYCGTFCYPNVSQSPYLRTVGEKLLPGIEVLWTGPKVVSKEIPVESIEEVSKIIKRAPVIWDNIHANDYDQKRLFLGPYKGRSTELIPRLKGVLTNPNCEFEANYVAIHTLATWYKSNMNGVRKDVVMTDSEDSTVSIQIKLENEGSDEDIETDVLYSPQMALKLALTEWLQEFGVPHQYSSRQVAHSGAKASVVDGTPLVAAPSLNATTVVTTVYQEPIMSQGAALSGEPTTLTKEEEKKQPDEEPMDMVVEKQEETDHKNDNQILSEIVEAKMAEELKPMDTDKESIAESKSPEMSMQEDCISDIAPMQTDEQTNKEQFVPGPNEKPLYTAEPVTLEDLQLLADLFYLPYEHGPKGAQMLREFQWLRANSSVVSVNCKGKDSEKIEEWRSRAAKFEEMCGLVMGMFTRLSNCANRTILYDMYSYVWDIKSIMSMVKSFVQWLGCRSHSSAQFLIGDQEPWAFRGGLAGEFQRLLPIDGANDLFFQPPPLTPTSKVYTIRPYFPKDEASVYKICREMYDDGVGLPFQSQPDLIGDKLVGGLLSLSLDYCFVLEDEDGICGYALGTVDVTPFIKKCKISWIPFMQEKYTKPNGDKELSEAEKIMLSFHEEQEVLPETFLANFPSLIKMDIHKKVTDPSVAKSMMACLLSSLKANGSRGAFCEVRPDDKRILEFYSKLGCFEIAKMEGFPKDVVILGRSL
Procedure: The hydrolysis FM-GlcNAc (Marker Gene technologies, cat # M1485) results in the formation of ß-D-N-glucosamineacetate and fluorescein. The fluorescence of the latter can be measured at excitation wavelength 485 nm and emission wavelength 538 nm. An increase in enzyme activity results in an increase in fluorescence signal. Full length OGA enzyme was purchased at OriGene (cat # TP322411). The enzyme was stored in 25 mM Tris.HCl, pH 7.3, 100 mM glycine, 10% glycerol at −20° C. […] The assay was performed in 200 mM Citrate/phosphate buffer supplemented with 0.005% Tween-20. 35.6 g Na2HPO4 2 H2O (Sigma, # C0759) were dissolved in 1 L water to obtain a 200 mM solution. […] The buffer to stop the reaction consists of a 500 mM Carbonate buffer, pH 11.0. […] OGA was used at a 10 nM (protocol A) or 2 nM (protocol B) concentration and FM-GlcNAc at a 100 uM final concentration. Dilutions were prepared in assay buffer.
Plates were pre-incubated for 60 min at room temperature and then 2 μl FM-GlcNAc substrate mix added. […] Plates were briefly centrifuged for 1 min at 1000 rpm and incubate at room temperature for 1 h (10 nM OGA, protocol A) or 6 h (2 nM OGA, protocol B). To stop the reaction 5 μl STOP buffer were added and plates centrifuge again 1 min at 1000 rpm. Fluorescence was quantified in the Thermo Scientific Fluoroskan Ascent or the PerkinElmer EnVision with excitation wavelength 485 nm and emission wavelength 538 nm.
For analysis a best-fit curve is fitted by a minimum sum of squares method. From this an IC50 value and Hill coefficient was obtained. High control (no inhibitor) and low control (saturating concentrations of standard inhibitor) were used to define the minimum and maximum values.

OGA = target: T2, OGA (Homo sapiens, UniProt O60502); assay: OGA cellular assay: immunocytochemical detection of O-GlcNAcylated proteins in HEK293 cells inducible for P301L mutant human Tau; assay type: cell-based; conditions: for Emax: HEK293, read-out: Cellular Emax (%)
T2 construct: HEK293 cells inducible for P301L mutant human Tau (isoform 2N4R) were established at Janssen; endogenous in cells; host or cells: HEK293 cells inducible for P301L mutant human Tau (2N4R)
T2 sequence (O60502 1-916): T1 sequence (O60502 1-916)
Excerpt: HEK293 cells inducible for P301L mutant human Tau (isoform 2N4R) were established at Janssen. Thiamet-G was used for both plate validation (high control) and as reference compound (reference EC50 assay validation). […] Inhibition of OGA will result in an increase of O-GlcNAcylated protein levels resulting in an increased signal in the experiment. […] ICC pictures are imaged with a Perkin Elmer Opera Phenix plate microscope and quantified with the provided software Perkin Elmer Harmony 4.1.
Cells were propagated in DMEM high Glucose (Sigma, # D5796) following standard procedures. […] At the day of compound test medium from assay plates was removed and replenished with 90 μl of fresh Assay Medium. 10 μl of compounds at a 10 fold final concentration were added to the wells. Plates were centrifuged shortly before incubation in the cell incubator for 6 hours. DMSO concentration was set to 0.2%. Medium is discarded by applying vacuum. For staining of cells medium was removed and cells washed once with 100 μl D-PBS (Sigma, # D8537). From next step onwards unless other stated assay volume was always 50 μl and incubation was performed without agitation and at room temperature. […] Before analysis samples were washed 2 times manually for 5 minutes in ICC base buffer.
Imaging is performed using Perkin Elmer Phenix Opera using a water 20× objective and recording 9 fields per well. Intensity readout at 488 nm is used as a measure of O-GlcNAcylation level of total proteins in wells. To assess potential toxicity of compounds nuclei were counted using the Hoechst staining. IC50-values are calculated using parametric non-linear regression model fitting. As a maximum inhibition Thiamet G at a 200 uM concentration is present on each plate. In addition, a concentration response of Thiamet G is calculated on each plate.

[2] = Enzymatic protocol A (10 nM OGA, 1 h)
[3] = Enzymatic protocol B (2 nM OGA, 6 h)

| SMILES | Emax [1, 2] | IC50 [1, 2] | EC50 (OGA) | Emax (OGA) | melting point | Emax [1, 3] | IC50 [1, 3] |
| --- | --- | --- | --- | --- | --- | --- | --- |
| CC(=O)Nc1ncc(S(=O)(=O)N2CCCC(c3cc(C(F)F)nc4ncnn34)C2)s1 (racemic) [Product 6] | 101% | 0.00933 µM | > 10 µM | 39.4% | 266.14 °C | – | – |
| CC(=O)Nc1ncc(CN2CCCC(c3cc(C)nc4ncnn34)C2)s1 (racemic) [Product 11] | – | – | 0.0275 µM | 113% | 246.95 °C | 100% | 0.00617 µM |
| CC(=O)Nc1ncc(CN2CCCC(c3cc(C(F)F)nc4ncnn34)C2)s1 (racemic) [Product 13] | 101% | 0.00851 µM | 0.0355 µM | 130% | 186.01 °C | – | – |
| CC(=O)Nc1ncc(CN2CCCC(c3cc(C(F)F)n4ccnc4n3)C2)s1 (racemic) [Product 24] | 102% | 0.0316 µM | 0.479 µM | 109% | 232.44 °C | – | – |
| CC(=O)Nc1ncc(S(=O)(=O)N2CCOC(c3cc(C)nc4ncnn34)C2)s1 (racemic) [Product 28] | 103% | 0.00912 µM | > 10 µM | 22% | 290.78 °C | 101% | 0.00851 µM |
| CC(=O)Nc1ncc(CN2CCCC(c3cc4cc[nH]c4nc3C)C2)s1 (racemic) [Product 74] | 101% | 0.00631 µM | 0.0135 µM | 102% | 276.23 °C | – | – |
| CC(=O)Nc1ncc(CN2CCC[C@H](c3ccnc4ncnn34)C2)s1 [Product 9] | 101% | 0.0117 µM | 0.0389 µM | 109% | 234.6 °C | – | – |
| CC(=O)Nc1ncc(CN2CCCC(c3cc(C(F)F)nc4nccn34)C2)s1 (centres unmarked) [Product 14] | 102% | 0.00871 µM | 0.0708 µM | 108% | 226.06 °C | – | – |
| CC(=O)Nc1ncc(S(=O)(=O)N2CCC[C@@H](c3cc(C(F)F)n4ncnc4n3)C2)s1 [Product 22] | 99.1% | 0.617 µM | – | – | 263.43 °C | – | – |
| CC(=O)Nc1ncc(CN2CCC[C@@H](c3cc(C(F)F)n4ncnc4n3)C2)s1 [Product 25] | 103% | 0.0135 µM | 0.457 µM | 113% | 182.53 °C | – | – |
| CC(=O)Nc1ncc(S(=O)(=O)N2CCOC(c3cc(C(F)(F)F)nc4ncnn34)C2)s1 (centres unmarked) [Product 27] | 100% | 0.017 µM | > 10 µM | 19.5% | 255.12 °C | – | – |
| CC(=O)Nc1ncc(S(=O)(=O)N2CCO[C@@H](c3ccnc4ncnn34)C2)s1 [Product 31] | 103% | 0.0158 µM | > 10 µM | 11.1% | 263.16 °C | – | – |
| CC(=O)Nc1ncc(CN2CCOC(c3cc(C(F)F)nc4ncnn34)C2)s1 (centres unmarked) [Product 34] | 97.4% | 1.58 µM | – | – | 260.21 °C | – | – |
| CC(=O)Nc1ncc(CN2CCOC(c3cc(C)nc4ncnn34)C2)s1 (centres unmarked) [Product 35] | 98.3% | 1.58 µM | – | – | 264.26 °C | 86.7% | 1.48 µM |
| CC(=O)Nc1ncc(CN2CCOC(c3ccnc4ncnn34)C2)s1 (centres unmarked) [Product 36] | – | – | – | – | 251.21 °C | 93.6% | 0.741 µM |
| CC(=O)Nc1ncc(CN2CCOC(c3cc(C(F)(F)F)nc4ncnn34)C2)s1 (centres unmarked) [Product 37] | – | – | – | – | 242.64 °C | 79.6% | 2.69 µM |
| CC(=O)Nc1ncc(S(=O)(=O)N2CCOC(c3cc(C(F)F)n4ncnc4n3)C2)s1 (centres unmarked) [Product 38] | 101% | 0.468 µM | – | – | 229.94 °C | – | – |
| CC(=O)Nc1ncc(CN2CCOC(c3cc(C(F)F)n4ncnc4n3)C2)s1 (centres unmarked) [Product 39] | 88.4% | 3.47 µM | – | – | 209.69 °C | – | – |
| CC(=O)Nc1ncc(S(=O)(=O)N2CCNC(c3cc(C)nc4ncnn34)C2)s1 (centres unmarked) [Product 40] | 100% | 0.0166 µM | – | – | 226.91 °C | – | – |
| CC(=O)Nc1ncc(CN2CCNC(c3cc(C)nc4ncnn34)C2)s1 (centres unmarked) [Product 42] | – | – | – | – | 228.95 °C | 93.6% | 0.437 µM |
| CC(=O)Nc1ncc(S(=O)(=O)N2CCNC(c3cc(C(F)F)n4ncnc4n3)C2)s1 (centres unmarked) [Product 43] | 93.1% | 1.86 µM | – | – | 226.22 °C | – | – |
| CC(=O)Nc1ncc(CN2CCCC(Nc3cc(C)nc4ncnn34)C2)s1 (centres unmarked) [Product 51] | – | – | – | – | 249.94 °C | 98.5% | 0.115 µM |
| Cc1cc([C@H]2CN([C@H](C)c3ccc4c(c3)OCO4)CCN2)n2ncnc2n1 [Product 56] | – | – | – | – | 199.25 °C | 25.8% | > 10 µM |
| Cc1cc([C@H]2CN([C@@H](C)c3ccc4c(c3)OCO4)CCN2)n2ncnc2n1 [Product 57] | – | – | – | – | 161.31 °C | 93% | 0.617 µM |
| Cc1cc(C2CN(CC(=O)N3CCCC3)CCO2)n2ncnc2n1 (centres unmarked) [Product 59] | – | – | – | – | 127.35 °C | -1.34% | > 10 µM |
| CC(=O)Nc1ncc(S(=O)(=O)N2CCCC(C)(c3cc(C(F)F)nc4ncnn34)C2)s1 (centres unmarked) [Product 60] | 98.7% | 1.86 µM | – | – | 238.12 °C | – | – |
| CC(=O)Nc1ncc(CN2CCCC(C)(c3cc(C(F)F)n4ncnc4n3)C2)s1 (centres unmarked) [Product 62] | – | – | – | – | 217.24 °C | 16.2% | > 10 µM |
| CC(=O)Nc1ncc(S(=O)(=O)N2CCC3(CC3)C(c3cc(C(F)F)nc4ncnn34)C2)s1 (centres unmarked) [Product 63] | 93.8% | 0.692 µM | – | – | 266.56 °C | – | – |
| CC(=O)Nc1ncc(CN2CCC[C@@H](c3ccnc4ncnn34)C2)s1 [Product 65] | – | – | – | – | 236.16 °C | 99.2% | 0.123 µM |
